# Reference: US8258114B2, “Modulation of glucose-6-phosphatase translocase expression” (Isis Pharmaceuticals, Inc., priority 2004, dated 2012)
# Oligonucleotides are written 5' to 3', each unit as a sugar letter and its base; * is a phosphorothioate linkage, no mark a phosphodiester; rarer units and linkages stand in square brackets, end groups in braces. Plain capitals give the bases only. e = 2'-O-(2-methoxyethyl) (MOE); [5mC] = 5-methylcytosine; d = 2'-deoxy (DNA)
# Experiments:
# Format in all cases: cell-based
# [1] = test system: human glucose-6-phosphatase translocase mRNA; assay: Antisense inhibition of human glucose-6-phosphatase translocase mRNA in T-24 cells, real-time PCR (Table 4); conditions: 100 nM oligonucleotide, LIPOFECTIN, mRNA by real-time PCR
# Experimental: The transitional cell bladder carcinoma cell line T-24 was obtained from the American Type Culture Collection (ATCC) (Manassas, Va.). T-24 cells were routinely cultured in complete McCoy's 5A basal media (Invitrogen Life Technologies, Carlsbad, Calif.) supplemented with 10% fetal bovine serum (Invitrogen Life Technologies, Carlsbad, Calif.). Cells were routinely passaged by trypsinization and dilution when they reached approximately 90% confluence. Cells were seeded into 96-well plates (Falcon-Primaria #3872) at a density of approximately 4000-6000 cells/well for use in oligomeric compound transfection experiments. When cells reached 65-75% confluency, they were treated with oligonucleotide. […] This transfection mixture was incubated at room temperature for approximately 0.5 hours. For cells grown in 96-well plates, wells were washed once with 100 μL OPTI-MEMTM-1 and then treated with 130 μL of the transfection mixture. Cells grown in 24-well plates or other standard tissue culture plates are treated similarly, using appropriate volumes of medium and oligonucleotide. Cells are treated and data are obtained in duplicate or triplicate. After approximately 4-7 hours of treatment at 37° C., the medium containing the transfection mixture was replaced with fresh culture medium. Cells were harvested 16-24 hours after oligonucleotide treatment. […] Prior to quantitative PCR analysis, primer-probe sets specific to the target gene being measured were evaluated for their ability to be “multiplexed” with a GAPDH amplification reaction. After isolation the RNA is subjected to sequential reverse transcriptase (RT) reaction and real-time PCR, both of which are performed in the same well. RT and PCR reagents were obtained from Invitrogen Life Technologies (Carlsbad, Calif.). […] The RT reaction was carried out by incubation for 30 minutes at 48° C. Following a 10 minute incubation at 95° C. to activate the PLATINUM® Taq, 40 cycles of a two-step PCR protocol were carried out: 95° C. for 15 seconds (denaturation) followed by 60° C. for 1.5 minutes (annealing/extension). Gene target quantities obtained by RT, real-time PCR were normalized using either the expression level of GAPDH, a gene whose expression is constant, or by quantifying total RNA using RiboGreenTM (Molecular Probes, Inc. Eugene, Oreg.). GAPDH expression was quantified by RT, real-time PCR, by being run simultaneously with the target, multiplexing, or separately. Total RNA was quantified using RiboGreenTM RNA quantification reagent (Molecular Probes, Inc. Eugene, Oreg.). A series of oligomeric compounds was designed to target different regions of human glucose-6-phosphatase translocase, using published sequences cited in Table 1. All compounds in Table 4 are chimeric oligonucleotides (“gapmers”) 20 nucleotides in length, composed of a central “gap” region consisting of 10 2'-deoxynucleotides, which is flanked on both sides ([NT]) by five-nucleotide “wings”. The wings are composed of 2'-O-(2-methoxyethyl) nucleotides, also known as 2'-MOE nucleotides. The internucleoside (backbone) linkages are phosphorothioate throughout the oligonucleotide. All cytidine residues are 5-methylcytidines. The compounds were analyzed for their effect on gene target mRNA levels by quantitative real-time PCR as described in other examples herein, using the following primer-probe set designed to hybridize to human glucose-6-phosphatase translocase: Forward primer: [NT] (incorporated herein as SEQ ID NO: 24) Reverse primer: [NT] (incorporated herein as SEQ ID NO: 25) And the PCR probe was: […] (incorporated herein as SEQ ID NO: 26), where FAM is the fluorescent dye and TAMRA is the quencher dye. Data are from experiments in which T-24 cells were treated with 100 nM of the antisense oligonucleotides of the present invention using LIPOFECTINTM. A reduction in expression is expressed as percent inhibition in Table 4. If present, “N.D.” indicates “not determined”. The control oligomeric compound used was SEQ ID NO: 11. […]
# [2] = test system: human glucose-6-phosphatase translocase mRNA; assay: Antisense inhibition of human glucose-6-phosphatase translocase mRNA in HepG2 cells (Table 11); design: concentration or dose not given beside the values; conditions: LIPOFECTIN, mRNA by real-time PCR
# Experimental: The human hepatoblastoma cell line HepG2 was obtained from the American Type Culture Collection (Manassas, Va.). HepG2 cells were routinely cultured in Eagle's MEM supplemented with 10% fetal bovine serum, 1 mM non-essential amino acids, and 1 mM sodium pyruvate (Invitrogen Life Technologies, Carlsbad, Calif.). Cells were routinely passaged by trypsinization and dilution when they reached approximately 90% confluence. Multiwell culture plates are prepared for cell culture by coating with a 1:100 dilution of type 1 rat tail collagen (BD Biosciences, Bedford, Mass.) in phosphate-buffered saline. The collagen-containing plates were incubated at 37° C. for approximately 1 hour, after which the collagen was removed and the wells were washed twice with phosphate-buffered saline. Cells were seeded into 96-well plates (Falcon-Primaria #353872, BD Biosciences, Bedford, Mass.) at a density of approximately 8,000 cells/well for use in oligomeric compound transfection experiments.
# (§1) When cells reached 65-75% confluency, they were treated with oligonucleotide. Oligonucleotide was mixed with LIPOFECTIN™ Invitrogen Life Technologies, Carlsbad, Calif.) in Opti-MEM™-1 reduced serum medium (Invitrogen Life Technologies, Carlsbad, Calif.) to achieve the desired concentration of oligonucleotide and a LIPOFECTIN™ concentration of 2.5 or 3 μg/mL per 100 nM oligonucleotide. This transfection mixture was incubated at room temperature for approximately 0.5 hours. For cells grown in 96-well plates, wells were washed once with 100 μL OPTI-MEM™-1 and then treated with 130 μL of the transfection mixture. Cells grown in 24-well plates or other standard tissue culture plates are treated similarly, using appropriate volumes of medium and oligonucleotide. Cells are treated and data are obtained in duplicate or triplicate. After approximately 4-7 hours of treatment at 37° C., the medium containing the transfection mixture was replaced with fresh culture medium. Cells were harvested 16-24 hours after oligonucleotide treatment.
# (§2) Quantitation of glucose 6-phosphatase translocase mRNA levels was accomplished by real-time quantitative PCR using the ABI PRISM™ 7600, 7700, or 7900 Sequence Detection System (PE-Applied Biosystems, Foster City, Calif.) according to manufacturer's instructions.
# (§3) Prior to quantitative PCR analysis, primer-probe sets specific to the target gene being measured were evaluated for their ability to be “multiplexed” with a GAPDH amplification reaction. After isolation the RNA is subjected to sequential reverse transcriptase (RT) reaction and real-time PCR, both of which are performed in the same well. RT and PCR reagents were obtained from Invitrogen Life Technologies (Carlsbad, Calif.). […] The RT reaction was carried out by incubation for 30 minutes at 48° C. Following a 10 minute incubation at 95° C. to activate the PLATINUM® Taq, 40 cycles of a two-step PCR protocol were carried out: 95° C. for 15 seconds (denaturation) followed by 60° C. for 1.5 minutes (annealing/extension).
# (§4) Gene target quantities obtained by RT, real-time PCR were normalized using either the expression level of GAPDH, a gene whose expression is constant, or by quantifying total RNA using RiboGreen™ (Molecular Probes, Inc. Eugene, Oreg.). GAPDH expression was quantified by RT, real-time PCR, by being run simultaneously with the target, multiplexing, or separately. Total RNA was quantified using RiboGreen™ RNA quantification reagent (Molecular Probes, Inc. Eugene, Oreg.).
# A series of oligomeric compounds was designed to target different regions of human glucose-6-phosphatase translocase, using published sequences cited in Table 1. All compounds in Table 4 are chimeric oligonucleotides (“gapmers”) 20 nucleotides in length, composed of a central “gap” region consisting of 10 2′-deoxynucleotides, which is flanked on both sides (5′ and 3′) by five-nucleotide “wings”. The wings are composed of 2′-O-(2-methoxyethyl) nucleotides, also known as 2′-MOE nucleotides. […]
# [3] = test system: mouse glucose-6-phosphatase translocase mRNA; assay: Antisense inhibition of mouse glucose-6-phosphatase translocase mRNA in primary mouse hepatocytes, 150 nM, LIPOFECTIN (Table 22); conditions: real-time PCR
# Experimental: Primary mouse hepatocytes were prepared from CD-1 mice purchased from Charles River Labs. Primary mouse hepatocytes were routinely cultured in Hepatocyte Attachment Media supplemented with 10% fetal bovine serum (Invitrogen Life Technologies, Carlsbad, Calif.), 250 nM dexamethasone, and 10 nM bovine insulin (Sigma-Aldrich, St. Louis, Mo.). Cells were seeded into 96-well plates (Falcon-Primaria #353872, BD Biosciences, Bedford, Mass.) at a density of approximately 4,000-6,000 cells/well for use in oligomeric compound transfection experiments.
# as §1, §2, §3, §4
# A series of oligomeric compounds was designed to target different regions of mouse glucose-6-phosphatase translocase, using published sequences cited in Table 1. All compounds in Table 22 are chimeric oligonucleotides (“gapmers”) 20 nucleotides in length, composed of a central “gap” region consisting of 10 2′-deoxynucleotides, which is flanked on both sides (5′ and 3′) by five-nucleotide “wings”. The wings are composed of 2′-O-(2-methoxyethyl) nucleotides, also known as 2′-MOE nucleotides. The internucleoside (backbone) linkages are phosphorothioate throughout the oligonucleotide. All cytidine residues are 5-methylcytidines. The compounds were analyzed for their effect on gene target mRNA levels by quantitative real-time PCR as described in other examples herein, using the following primer-probe set designed to hybridize to mouse glucose-6-phosphatase translocase: • forward primer: […]
sequence,measurement,setting,value
AACCACACACAGTGCCCCAG (eA*eA*e[5mC]*e[5mC]*eA*d[5mC]*dA*d[5mC]*dA*d[5mC]*dA*dG*dT*dG*d[5mC]*e[5mC]*e[5mC]*e[5mC]*eA*eG; antisense) [ISIS 194853],% Inhib,[1],35%
ACCACACACAGTGCCCCAGA (eA*e[5mC]*e[5mC]*eA*e[5mC]*dA*d[5mC]*dA*d[5mC]*dA*dG*dT*dG*d[5mC]*d[5mC]*e[5mC]*e[5mC]*eA*eG*eA; antisense) [ISIS 145670],% Inhib,[2],42%
same,% Inhib of mouse glucose-6-phosphatase translocase mRNA levels,[3],45%
ACCCAGAAGGCTGTGCTCCA (eA*e[5mC]*e[5mC]*e[5mC]*eA*dG*dA*dA*dG*dG*d[5mC]*dT*dG*dT*dG*e[5mC]*eT*e[5mC]*e[5mC]*eA; antisense) [ISIS 145702],% Inhib,[2],74%
same,% Inhib of mouse glucose-6-phosphatase translocase mRNA levels,[3],45%
AGATAGGGCCAGCGTGCTGC (eA*eG*eA*eT*eA*dG*dG*dG*d[5mC]*d[5mC]*dA*dG*d[5mC]*dG*dT*eG*e[5mC]*eT*eG*e[5mC]; antisense) [ISIS 194832],% Inhib,[1],55%
AGGAAGAACTGGCCCCAGTC (eA*eG*eG*eA*eA*dG*dA*dA*d[5mC]*dT*dG*dG*d[5mC]*d[5mC]*d[5mC]*e[5mC]*eA*eG*eT*e[5mC]; antisense) [ISIS 145685],% Inhib,[2],71%
same,% Inhib of mouse glucose-6-phosphatase translocase mRNA levels,[3],43%
CAGGTTCATGCTGGTTGACA (e[5mC]*eA*eG*eG*eT*dT*d[5mC]*dA*dT*dG*d[5mC]*dT*dG*dG*dT*eT*eG*eA*e[5mC]*eA; antisense) [ISIS 145664],% Inhib,[2],66%
same,% Inhib of mouse glucose-6-phosphatase translocase mRNA levels,[3],50%
CGCCAGCTGTAGCTCTGGGC (e[5mC]*eG*e[5mC]*e[5mC]*eA*dG*d[5mC]*dT*dG*dT*dA*dG*d[5mC]*dT*d[5mC]*eT*eG*eG*eG*e[5mC]; antisense) [ISIS 145667],% Inhib,[2],54%
same,% Inhib of mouse glucose-6-phosphatase translocase mRNA levels,[3],49%
CTGCGCCAGCTGTAGCTCTG (e[5mC]*eT*eG*e[5mC]*eG*d[5mC]*d[5mC]*dA*dG*d[5mC]*dT*dG*dT*dA*dG*e[5mC]*eT*e[5mC]*eT*eG; antisense) [ISIS 145668],% Inhib,[2],47%
same,% Inhib of mouse glucose-6-phosphatase translocase mRNA levels,[3],39%
GCCCACCAAGTGCCAAACTG (eG*e[5mC]*e[5mC]*e[5mC]*eA*d[5mC]*d[5mC]*dA*dA*dG*dT*dG*d[5mC]*d[5mC]*dA*eA*eA*e[5mC]*eT*eG; antisense) [ISIS 145662],% Inhib,[2],52%
same,% Inhib of mouse glucose-6-phosphatase translocase mRNA levels,[3],19%
GGAGACAACCACACACAGTG (eG*eG*eA*eG*eA*d[5mC]*dA*dA*d[5mC]*d[5mC]*dA*d[5mC]*dA*d[5mC]*dA*e[5mC]*eA*eG*eT*eG; antisense) [ISIS 145671],% Inhib,[2],39%
same,% Inhib of mouse glucose-6-phosphatase translocase mRNA levels,[3],25%
GGATAAGGAAGAACTGGCCC (eG*eG*eA*eT*eA*dA*dG*dG*dA*dA*dG*dA*dA*d[5mC]*dT*eG*eG*e[5mC]*e[5mC]*e[5mC]; antisense) [ISIS 145686],% Inhib,[2],32%
same,% Inhib of mouse glucose-6-phosphatase translocase mRNA levels,[3],26%
GGCATGACAAAGGAGAAGGT (eG*eG*e[5mC]*eA*eT*dG*dA*d[5mC]*dA*dA*dA*dG*dG*dA*dG*eA*eA*eG*eG*eT; antisense) [ISIS 145657],% Inhib,[2],43%
same,% Inhib of mouse glucose-6-phosphatase translocase mRNA levels,[3],45%
GGTTCATTGTGGATGAGCAG (eG*eG*eT*eT*e[5mC]*dA*dT*dT*dG*dT*dG*dG*dA*dT*dG*eA*eG*e[5mC]*eA*eG; antisense) [ISIS 145673],% Inhib,[2],47%
same,% Inhib of mouse glucose-6-phosphatase translocase mRNA levels,[3],4%
TGGGCTGCCATGGTAGAAAA (eT*eG*eG*eG*e[5mC]*dT*dG*d[5mC]*d[5mC]*dA*dT*dG*dG*dT*dA*eG*eA*eA*eA*eA; antisense) [ISIS 145652],% Inhib,[2],50%
same,% Inhib of mouse glucose-6-phosphatase translocase mRNA levels,[3],36%
TTGGCAATGGTGCTGAAGGG (eT*eT*eG*eG*e[5mC]*dA*dA*dT*dG*dG*dT*dG*d[5mC]*dT*dG*eA*eA*eG*eG*eG; antisense) [ISIS 145700],% Inhib,[2],24%
same,% Inhib of mouse glucose-6-phosphatase translocase mRNA levels,[3],1%
